Data reported in patent publication US20100304975A1, “PROCESS FOR […] RESISTANCE TO AN ABIOTIC STRESS” (ELICITYL, priority 2007, published 2010).

What was measured:
Assay type in all cases: in vivo
Pinot noir = assay: Frost-resistance of vine plants after foliar spraying, Pinot noir; conditions: for Gain: cold stress -3 to -5° C. 12 hours after application
Method: (§1) Plants originating from different vine varieties: the Chardonnay, Pinot noir and Cabernet-Sauvignon varieties are used. Each sample, composed of 5 to 21 plants, is treated by foliar spraying at different vegetative stages on the BBCH scale with a mixture containing the xyloglucan elicitor, HEPTAMALOXYLOGLUCAN or XFGol in solution at variable doses; the spraying of 2.5 ml of solution per plant is carried out using a sprayer (deviation of +/−1%).
(§2) 12 hours after the application of the elicitor, the plants were exposed to cold stress at −3 to −5° C. After exposure to the cold, the plants are placed in a climatic chamber at 20° C. with a 12-hour day/night alternation. The appearance of the leaves is observed 24 hours and 72 hours after removal from the cold. The effects of the cold are evaluated by observing the foliar necroses induced by frost and the plants are kept for several months in order to monitor their subsequent development.
(§3) The results are expressed by the protection index IP: IP (%)=100−P; P, being the proportion of necrotized leaves.

Chardonnay = assay: Frost-resistance of vine plants after foliar spraying, Chardonnay; conditions: for Gain: cold stress -3 to -5° C. 12 hours after application
Method: as §1, §2, §3

Cabernet-Sauvignon = assay: Frost-resistance of vine plants after foliar spraying, Cabernet-Sauvignon; conditions: for Gain: Cabernet Sauvignon, cold stress -3 to -5° C. 12 hours after application
Method: as §1, §2, §3

kiwi plants = assay: Frost-resistance of kiwi plants after foliar spraying (death of buds); conditions: for Gain % / IP (protection index of kiwi buds; IP=100-P, P=proportion of dead buds): elicitor 500 nM
Method: The elicitor which is used is HEPTAMALOXYLOGLUCAN (or XFGol).
Before the cold stress, plants are treated or not by foliar spraying with a spray mixture containing HEPTAMALOXYLOGLUCAN.
After application of the spraying mixture, the plants were exposed to cold stress. In order to reproduce artificial conditions of cold stress, plants were placed in a climatic chamber.
The effects of cold are evaluated by observing the death of buds due to frost.
The results are expressed by the protection index IP: IP (%)=100-P; P, being the proportion of dead buds.
The results are also expressed in gain:
Increase of protection of kiwi plants elicited by the product PEL101GV (500 nM). IP corresponds to the protection index of kiwi buds, 28 days after the cold stress at −2,8° C. or −4° C. (IP=100−P; P=proportion of dead buds)

[1] = spray mixture containing 5 nM, compared within a range of 0.5 nM to 5000 nM
[2] = 28 days after the cold stress at -2.8° C.
[3] = 28 days after the cold stress at -4° C.

How did the Gain (Pinot noir; elicitor 0.5 nM foliar spray) turn out when `CC1OC(OC2C(OC3C(OCC4OC(OC(C(O)CO)C(O)C(O)CO)C(O)C(O)C4OC4OC(COC5OCC(O)C(O)C5O)C(O)C(O)C4O)OCC(O)C3O)OC(CO)C(O)C2O)C(O)C(O)C1O` (stereo not drawn) [HEPTAMALOXYLOGLUCAN] was run?
The Gain was 0%.

What about the Gain (Pinot noir; elicitor 5 nM foliar spray) of the same compound?
The Gain was 34%.

What about the Gain (Pinot noir; elicitor 50 nM foliar spray) of the same compound?
The Gain was 0%.

And the Gain (Pinot noir; elicitor 500 nM foliar spray)?
The Gain was 27%.

What about the Gain (Pinot noir; elicitor 5000 nM foliar spray) of the same compound?
Its Gain is 25%.

And the protection against frost (Pinot noir; [1])?
The protection against frost was “more efficient than the other doses”.

And the Gain (Chardonnay; elicitor 0.5 nM foliar spray)?
The Gain was 28%.

What about the Gain (Chardonnay; elicitor 5 nM foliar spray) of the same compound?
The Gain was 42%.

What about the Gain (Chardonnay; elicitor 50 nM foliar spray) of the same compound?
Its Gain is 9%.

What about the Gain (Chardonnay; elicitor 500 nM foliar spray) of the same compound?
The Gain was 0%.

And the Gain (Chardonnay; elicitor 5000 nM foliar spray)?
The Gain was 28%.

What about the protection against frost (Chardonnay; [1]) of the same compound?
Its protection against frost is “more efficient than the other doses”.

What about the Gain (Cabernet-Sauvignon; elicitor 5 nM foliar spray) of the same compound?
The Gain was 46%.

And the Gain (Cabernet-Sauvignon; elicitor 50 nM foliar spray)?
Its Gain is 35%.

And the Gain (Cabernet-Sauvignon; elicitor 500 nM foliar spray)?
Its Gain is 76%.

And the protection against frost (Cabernet-Sauvignon; Cabernet sauvignon, spray mixture containing 500 nM, compared with the other doses)?
The protection against frost was “more efficient than the other doses”.

What about the Gain % (kiwi plants; [2]) of the same compound?
Its Gain % is 27%.

And the “IP (protection index of kiwi buds; IP=100-P, P=proportion of dead buds)” value (kiwi plants; [2])?
The value was 81%.

What about the Gain % (kiwi plants; [3]) of the same compound?
Its Gain % is 87%.

What about the “IP (protection index of kiwi buds; IP=100-P, P=proportion of dead buds)” value (kiwi plants; [3]) of the same compound?
The value was 56%.

And the “protection of the kiwi buds against frost” value (kiwi plants; treated versus control)?
Its value is “better protection”.
